Measurements as given in the CheMixHub viscosity set.

Assay: xn = mol fraction of the nth substance listed

OCCCl + CCCCCCO
viscosity [mPa·s], 101.33 kPa
Conditions	x1 = 0.097	x1 = 0.1953	x1 = 0.2962	x1 = 0.3953	x1 = 0.5314	x1 = 0.5962	x1 = 0.7121	x1 = 0.7968	x1 = 0.8982
298.15 K	3.93	3.7	3.544	3.406	3.241	3.175	3.057	2.983	2.921
303.15 K	3.33	3.18	3.068	2.909	2.78	2.718	2.615	2.551	2.529
308.15 K	2.824	2.68	2.572	2.494	2.38	2.329	2.276	2.237	2.208

NC=O + CCCCCO
298.15 K, 100 kPa
Conditions	viscosity [mPa·s]
x1 = 0.05608	3.38
x1 = 0.1142	3.39
x1 = 0.2182	3.48
x1 = 0.2483	3.57
x1 = 0.3487	3.73
x1 = 0.3776	3.77
x1 = 0.4665	3.98
x1 = 0.4951	4.02
x1 = 0.5681	4.15
x1 = 0.6207	4.23
x1 = 0.7099	4.32
x1 = 0.7533	4.33
x1 = 0.8001	4.23
x1 = 0.8518	4.07
x1 = 0.9349	3.69

OCCCl + CCCCCO
viscosity [mPa·s], 101.33 kPa
Conditions	x1 = 0.0959	x1 = 0.194	x1 = 0.2912	x1 = 0.3946	x1 = 0.4922	x1 = 0.5939	x1 = 0.6962	x1 = 0.8018	x1 = 0.8986
298.15 K	3.401	3.282	3.2	3.138	3.088	3.045	3.02	2.98	2.92
303.15 K	2.941	2.86	2.78	2.731	2.705	2.69	2.661	2.62	2.56
308.15 K	2.58	2.5	2.441	2.401	2.384	2.378	2.34	2.323	2.25
